Data on three molecules can be found in US4942226A, “Halogenated pyrimidine nucleosides and their derivatives” (Merck & Co., Inc., priority 1988, dated 1990).

The data set can be described thus: Determination of Ester Half-lives (conversion of ester to alcohol in phosphate buffer at 37°, HPLC). Type of data set: physicochemical. Conditions: read-out: t1/2 (time required for 50% conversion of ester to alcohol). On the procedure:
Determination of Ester Half-lives
Two mL of phosphate buffer preheated to 37° were added to approximately 0.5 mg of the ester dihydrochloride. The resulting solution was heated at 37° while 20 μL samples were removed at intervals and injected directly into the HPLC injection port.
Unreacted ester and 5-halo-2'-deoxyuridine concentrations were determined by HPLC analysis on a C-18 reverse phase column using a gradient of 98% pH 2.4 phosphoric acid--2% acetonitrile to 70% pH 2.4 phosphoric acid--30% acetonitrile over 10 minutes. The UV detector was set at 280 nm. The half-life (t1/2) is the time required for 50% conversion of ester to alcohol.

Structures can show the parent of a compound that is named as a salt. Where two headings read alike, the source gives them in different places.

For `O=C(CNCCNCCC1CCCCC1)OC[C@H]1O[C@@H](n2cc(Br)c(=O)[nH]c2=O)C[C@@H]1O` [Example 3, 5-Bromo-2'-deoxyuridine 5'-N-(2-(2-cyclohexylethylamino)ethyl]glycyl Ester Dihydrochloride], the half-life by setting is: (pH 6.8, 37°) 35 min; (pH 7.4, 37°) 22 min.
For `CCNCCNCC(=O)O[C@H]1C[C@H](n2cc(Br)c(=O)[nH]c2=O)O[C@@H]1CO` [Example 1, 5-Bromo-2'-deoxyuridine 3'-N-(2-Ethylaminoethyl)-glycyl Ester Dihydrochloride], the half-life came to 32 min (pH 6.8, 37°) and 26 min (pH 7.4, 37°).
For `O=C(CNCCNCCC1CCCCC1)O[C@H]1C[C@H](n2cc(Br)c(=O)[nH]c2=O)O[C@@H]1CO` [Example 2, 5-Bromo-2'-deoxyuridine 3'-[N-(2-(2-Cyclohexylethylamino)ethyl)glycyl]esterDihydrochloride], in that order: 47 min and 29 min.
